Publication PMC2425470 (Nucleic Acids Research, 2008)

Experiments:
[1] = target: T1, CF Im25 (25 kDa subunit of human cleavage factor Im; CPSF5; NUDT21) (Homo sapiens, UniProt O43809); assay: steady-state tryptophan fluorescence titration; assay type: binding
[2] = target: T1, CF Im25 (25 kDa subunit of human cleavage factor Im; CPSF5; NUDT21); assay: […] Å crystal structure; assay type: binding

T1 sequence (O43809 whole entry): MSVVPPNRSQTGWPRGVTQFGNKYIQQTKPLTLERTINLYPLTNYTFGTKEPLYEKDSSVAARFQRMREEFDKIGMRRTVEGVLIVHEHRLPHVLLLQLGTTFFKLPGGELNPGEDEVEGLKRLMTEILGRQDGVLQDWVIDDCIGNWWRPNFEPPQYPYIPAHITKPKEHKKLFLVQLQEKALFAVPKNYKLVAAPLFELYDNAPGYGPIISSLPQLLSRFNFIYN

SMILES | Kd [1] [µM] | Kd [2] [µM]
Nc1ncnc2c1ncn2[C@@H]1O[C@H](COP(=O)(O)OP(=O)(O)OP(=O)(O)O)[C@@H](O)[C@H]1O [ATP] | 1530 ± 180 | 
Nc1ncnc2c1ncn2[C@@H]1O[C@H](COP(=O)(O)OP(=O)(O)OP(=O)(O)OP(=O)(O)OC[C@H]2O[C@@H](n3cnc4c(N)ncnc43)[C@H](O)[C@@H]2O)[C@@H](O)[C@H]1O [Ap4A] |  | 2.44 ± 0.49
